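Briefly, cells in 96-well plates were exposed to five compound concentrations for 48 h, and endpoints were estimated by linear interpolation. Here, GI50 denotes the concentration required for 50% inhibition of growth. At the TGI there is no net growth.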
Legend:
Assay in all cases: NCI-60 cell line screen, 48 h
SK-MEL-2 melanoma = tested on: SK-MEL-2 melanoma
NCI-H23 lung = tested on: NCI-H23 lung
HCT-15 colon = tested on: HCT-15 colon
MDA-MB-231 breast = tested on: MDA-MB-231 breast
DU-145 prostate = tested on: DU-145 prostate
SR leukemia = tested on: SR leukemia
SK-MEL-5 melanoma = tested on: SK-MEL-5 melanoma
NCI-H460 lung = tested on: NCI-H460 lung
HT29 colon = tested on: HT29 colon
HOP-92 NSCLC = tested on: HOP-92 NSCLC
MALME-3M melanoma = tested on: MALME-3M melanoma
ACHN renal = tested on: ACHN renal
A498 renal = tested on: A498 renal
HCC-2998 colon = tested on: HCC-2998 colon
T-47D breast = tested on: T-47D breast
TK-10 renal = tested on: TK-10 renal
NCI-H522 lung = tested on: NCI-H522 lung
HL-60(TB) leukemia = tested on: HL-60(TB) leukemia
SW-620 colon = tested on: SW-620 colon
HS 578T breast = tested on: HS 578T breast
SK-MEL-28 melanoma = tested on: SK-MEL-28 melanoma
OVCAR-5 ovarian = tested on: OVCAR-5 ovarian
IGROV1 ovarian = tested on: IGROV1 ovarian
A549 NSCLC = tested on: A549 NSCLC
BT-549 breast = tested on: BT-549 breast
MDA-MB-435 = tested on: MDA-MB-435
UO-31 renal = tested on: UO-31 renal
MCF7 breast = tested on: MCF7 breast
COLO 205 colon = tested on: COLO 205 colon
MOLT-4 leukemia = tested on: MOLT-4 leukemia

## CN1CCN(CCS(=O)(=O)Nc2cc(-c3ccc4ncnc(Nc5ccc(F)c(Cl)c5)c4c3)cnc2Cl)CC1
SK-MEL-2 melanoma
  GI50: 2.32 µM
  TGI: 7.79 µM
NCI-H23 lung
  GI50: 2.8 µM
  TGI: 15.1 µM
HCT-15 colon
  GI50: 4.38 µM
  TGI: 43.6 µM
MDA-MB-231 breast
  GI50: 1.74 µM
  TGI: 4.13 µM
DU-145 prostate
  GI50: 3.23 µM
  TGI: > 100 µM
SR leukemia
  GI50: 2.06 µM
  TGI: 7.68 µM
SK-MEL-5 melanoma
  GI50: 1.61 µM
  TGI: 4.34 µM
NCI-H460 lung
  GI50: 5.85 µM
  TGI: > 100 µM
HT29 colon
  GI50: 3.87 µM
  TGI: 21.5 µM
HOP-92 NSCLC
  GI50: 0.675 µM
  TGI: 7.13 µM
MALME-3M melanoma
  GI50: 0.726 µM
  TGI: 5.76 µM
ACHN renal
  GI50: 3.67 µM
  TGI: > 100 µM
A498 renal
  GI50: 1.03 µM
  TGI: 4.4 µM
HCC-2998 colon
  GI50: 1.6 µM
  TGI: 6.2 µM
T-47D breast
  GI50: 0.221 µM
  TGI: 3.12 µM
TK-10 renal
  GI50: 1.83 µM
  TGI: 13.2 µM
NCI-H522 lung
  GI50: 1.96 µM
  TGI: 11.3 µM
HL-60(TB) leukemia
  GI50: 0.658 µM
  TGI: 23.7 µM
SW-620 colon
  GI50: 1.95 µM
  TGI: 38.6 µM
HS 578T breast
  GI50: 0.32 µM
  TGI: 3.75 µM
SK-MEL-28 melanoma
  GI50: 2.39 µM
  TGI: 37.4 µM
OVCAR-5 ovarian
  GI50: 2.56 µM
  TGI: 27 µM
IGROV1 ovarian
  GI50: 0.686 µM
  TGI: 2.93 µM
A549 NSCLC
  GI50: 11.1 µM
  TGI: 49.9 µM
BT-549 breast
  GI50: 1.06 µM
  TGI: 4.28 µM
MDA-MB-435
  GI50: 3.11 µM
  TGI: 16 µM
UO-31 renal
  GI50: 2.07 µM
  TGI: 13.4 µM
MCF7 breast
  GI50: 1.16 µM
  TGI: 15.3 µM
COLO 205 colon
  GI50: 2.74 µM
  TGI: 10.4 µM
MOLT-4 leukemia
  GI50: 2.5 µM

From PubChem BioAssay (NCI)
